# Results as given in ChEMBL document CHEMBL5346955, “Discovery of HPG1860, a Structurally Novel Nonbile Acid FXR Agonist Currently in Clinical Development for the Treatment of Nonalcoholic Steatohepatitis” (J Med Chem, 2023).
# The source made the active and inactive calls. No cut-off for these calls is given here.
# Assays:
# [1] = biological target: T1, Bile acid receptor (Homo sapiens, UniProt Q96RI1); assay: Agonist activity at GST-tagged human FXR-LBD in presence of luorescein-SRC2-2 coactivator peptide by TR-FRET assay
# T1 sequence (Q96RI1 whole entry): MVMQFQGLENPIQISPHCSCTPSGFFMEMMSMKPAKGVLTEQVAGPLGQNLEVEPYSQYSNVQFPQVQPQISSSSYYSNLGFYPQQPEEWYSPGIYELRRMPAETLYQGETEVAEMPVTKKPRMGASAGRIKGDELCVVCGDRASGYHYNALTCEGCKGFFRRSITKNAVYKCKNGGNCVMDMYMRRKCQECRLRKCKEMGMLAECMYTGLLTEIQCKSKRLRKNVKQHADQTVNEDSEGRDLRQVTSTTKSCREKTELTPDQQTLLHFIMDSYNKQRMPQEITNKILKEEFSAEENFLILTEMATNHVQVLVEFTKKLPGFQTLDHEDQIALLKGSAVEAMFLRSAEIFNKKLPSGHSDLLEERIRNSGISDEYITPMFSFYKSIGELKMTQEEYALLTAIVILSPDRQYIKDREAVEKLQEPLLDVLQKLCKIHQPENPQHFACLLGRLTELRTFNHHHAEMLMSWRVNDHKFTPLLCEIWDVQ
# [2] = biological target: T1, Bile acid receptor; assay: Agonist activity at human GAL4-FXR-LBD expressed in HEK293T cells assessed as transcriptional activity measured after 16 to 20 hrs by luciferase reporter gene assay; type: cell-based
# [3] = Solubility of the compound in PBS buffer at pH 7.4; type: physicochemical
# [4] = Metabolic stability in human liver microsomes assessed as half life at 1 uM measured upto 120 mins by UPLC/MS/MS analysis; type: ADME, Microsome
# [5] = Metabolic stability in rat liver microsomes assessed as half life at 1 uM measured upto 120 mins by UPLC/MS/MS analysis; type: ADME, Microsome
# [6] = Metabolic stability in dog liver microsomes assessed as half life at 1 uM measured upto 120 mins by UPLC/MS/MS analysis; type: ADME, Canis lupus familiaris, Microsome
# [7] = Metabolic stability in cynomolgus monkey liver microsomes assessed as half life at 1 uM measured upto 120 mins by UPLC/MS/MS analysis; type: ADME, Macaca fascicularis, Microsome
# [8] = AUC (0 to t) in Balb/c mouse at 1 mg/kg, iv measured after 5 mins by LC-MS/MS analysis; type: ADME, organism-based; set-up: time 5 min, dose 1 mg/kg, route iv; conditions: in vivo
# [9] = Half life in Balb/c mouse at 1 mg/kg, iv measured after 5 mins by LC-MS/MS analysis; type: ADME, organism-based; conditions: in vivo
# [10] = Clearance in Balb/c mouse at 1 mg/kg, iv measured after 5 mins by LC-MS/MS analysis; type: ADME, organism-based; conditions: in vivo
# [11] = Volume of distribution at steady state in Balb/c mouse at 1 mg/kg, iv measured after 5 mins by LC-MS/MS analysis; type: ADME, organism-based; conditions: in vivo, read-out: Vdss
# [12] = Cmax in Balb/c mouse at 5 mg/kg, po measured after 12 hrs by LC-MS/MS analysis; type: ADME, organism-based; set-up: dose 5 mg/kg, time 12 hrs, route po; conditions: in vivo
# [13] = Tmax in Balb/c mouse at 5 mg/kg, po measured after 12 hrs by LC-MS/MS analysis; type: ADME, organism-based; conditions: in vivo
# [14] = AUC (0 to t) in Balb/c mouse at 5 mg/kg, po measured after 12 hrs by LC-MS/MS analysis; type: ADME, organism-based; set-up: dose 5 mg/kg, time 12 hrs, route po; conditions: in vivo
# [15] = Half life in Balb/c mouse at 5 mg/kg, po measured after 12 hrs by LC-MS/MS analysis; type: ADME, organism-based; conditions: in vivo
# [16] = Oral bioavailability in Balb/c mouse at 5 mg/kg measured after 12 hrs by LC-MS/MS analysis; type: ADME, organism-based; conditions: in vivo
# [17] = AUC (0 to t) in Sprague-Dawley rat at 3 mg/kg, iv measured after 5 mins by LC-MS/MS analysis; type: ADME, organism-based; set-up: time 5 min, dose 3 mg/kg, route iv; conditions: in vivo
# [18] = Half life in Sprague-Dawley rat at 3 mg/kg, iv measured after 5 mins by LC-MS/MS analysis; type: ADME, organism-based; conditions: in vivo
# [19] = Volume of distribution at steady state in Sprague-Dawley rat at 3 mg/kg, iv measured after 5 mins by LC-MS/MS analysis; type: ADME, organism-based; conditions: in vivo
# [20] = Cmax in Sprague-Dawley rat at 9 mg/kg, po measured after 12 hrs by LC-MS/MS analysis; type: ADME, organism-based; set-up: time 12 hrs, dose 9 mg/kg, route po; conditions: in vivo
# [21] = Tmax in Sprague-Dawley rat at 9 mg/kg, po measured after 12 hrs by LC-MS/MS analysis; type: ADME, organism-based; conditions: in vivo
# [22] = AUC (0 to t) in Sprague-Dawley rat at 9 mg/kg, po measured after 12 hrs by LC-MS/MS analysis; type: ADME, organism-based; set-up: dose 9 mg/kg, time 12 hrs, route po; conditions: in vivo
# [23] = Half life in Sprague-Dawley rat at 9 mg/kg, po measured after 12 hrs by LC-MS/MS analysis; type: ADME, organism-based; conditions: in vivo
# [24] = Oral bioavailability in Sprague-Dawley rat at 9 mg/kg measured after 12 hrs by LC-MS/MS analysis; type: ADME, organism-based; conditions: in vivo
# [25] = AUC (0 to t) in Beagle dog at 1 mg/kg, iv measured after 5 mins by LC-MS/MS analysis; type: ADME, organism-based, Canis lupus familiaris; set-up: dose 1 mg/kg, time 5 min, route iv; conditions: in vivo
# [26] = Half life in Beagle dog at 1 mg/kg, iv measured after 5 mins by LC-MS/MS analysis; type: ADME, organism-based, Canis lupus familiaris; conditions: in vivo
# [27] = Clearance in Beagle dog at 1 mg/kg, iv measured after 5 mins by LC-MS/MS analysis; type: ADME, organism-based, Canis lupus familiaris; conditions: in vivo
# [28] = Volume of distribution at steady state in Beagle dog at 1 mg/kg, iv measured after 5 mins by LC-MS/MS analysis; type: ADME, organism-based, Canis lupus familiaris; conditions: in vivo, read-out: Vdss
# [29] = Cmax in Beagle dog at 3 mg/kg, po measured after 12 hrs by LC-MS/MS analysis; type: ADME, organism-based, Canis lupus familiaris; set-up: time 12 hrs, dose 3 mg/kg, route po; conditions: in vivo
# [30] = Tmax in Beagle dog at 3 mg/kg, po measured after 12 hrs by LC-MS/MS analysis; type: ADME, organism-based, Canis lupus familiaris; conditions: in vivo
# [31] = AUC (0 to t) in Beagle dog at 3 mg/kg, po measured after 12 hrs by LC-MS/MS analysis; type: ADME, organism-based, Canis lupus familiaris; set-up: dose 3 mg/kg, time 12 hrs, route po; conditions: in vivo
# [32] = Half life in Beagle dog at 3 mg/kg, po measured after 12 hrs by LC-MS/MS analysis; type: ADME, organism-based, Canis lupus familiaris; conditions: in vivo
# [33] = Drug metabolism in dog assessed as taurine/glycine conjugates in plasma at 50 mg/kg, po; type: ADME, organism-based, Canis lupus familiaris; conditions: in vivo
# [34] = Induction of SHP gene expression in C57BL/6J mouse liver assessed as fold increase at 3 mg/kg, po measured after 1 hr by RT-qPCR analysis; type: functional
# [35] = Induction of BSEP gene expression in C57BL/6J mouse liver assessed as fold increase at 3 mg/kg, po measured after 12 hr by RT-qPCR analysis; type: functional
# [36] = Induction of FGF15 gene expression in C57BL/6J mouse ileum assessed as fold increase at 3 mg/kg, po measured after 4 hr by RT-qPCR analysis relative to control; type: functional
# [37] = Induction of FGF15 gene expression in C57BL/6J mouse ileum assessed as fold increase at 3 mg/kg, po measured after 1 hr by RT-qPCR analysis relative to control; type: functional
# [38] = Induction of SHP gene expression in C57BL/6J mouse ileum assessed as fold increase at 3 mg/kg, po measured after 4 hr by RT-qPCR analysis relative to control; type: functional
# [39] = Toxicity in C57BL/6J mouse assessed as change in body weight at 1 to 10 mg/kg, po qd; type: organism-based; conditions: in vivo, dose 1-10 mg/kg
# [40] = test system: Mus musculus; assay: Anti-nonalcoholic steatohepatitis activity against ccl4-induced C57BL/6J mouse model assessed as decrease in ALT level in liver at 1 to 10 mg/kg, po qd treated for 28 days; type: functional, organism-based; conditions: dose 1-10 mg/kg, time 28.0 day
# [41] = test system: Mus musculus; assay: Anti-nonalcoholic steatohepatitis activity against ccl4-induced C57BL/6J mouse model assessed as decrease in AST level in liver at 1 to 10 mg/kg, po qd treated for 28 days; type: functional, organism-based; conditions: dose 1-10 mg/kg, time 28.0 day
# [42] = test system: Mus musculus; assay: Anti-nonalcoholic steatohepatitis activity against ccl4-induced C57BL/6J mouse model assessed as reduction total cholesterol in serum at 1 to 10 mg/kg, po qd treated for 28 days; type: functional, organism-based; conditions: dose 1-10 mg/kg, time 28.0 day
# [43] = test system: Mus musculus; assay: Anti-nonalcoholic steatohepatitis activity against ccl4-induced C57BL/6J mouse model assessed as improvement in NAFLD activity score at 1 to 10 mg/kg, po qd treated for 28 days; type: functional, organism-based; conditions: dose 1-10 mg/kg, time 28.0 day
# [44] = test system: Mus musculus; assay: Anti-nonalcoholic steatohepatitis activity against ccl4-induced C57BL/6J mouse model assessed as clearance of liver steatosis at 10 mg/kg, po qd treated for 28 days; type: functional; conditions: time 28 day
# [45] = test system: Mus musculus; assay: Anti-nonalcoholic steatohepatitis activity against ccl4-induced C57BL/6J mouse model assessed as improvement in liver inflammation at 1 to 10 mg/kg, po qd treated for 28 days; type: functional, organism-based; conditions: dose 1-10 mg/kg, time 28.0 day
# [46] = test system: Mus musculus; assay: Anti-nonalcoholic steatohepatitis activity against ccl4-induced C57BL/6J mouse model assessed as improvement in fibrosis at 1 to 10 mg/kg, po qd treated for 28 days; type: functional, organism-based; conditions: dose 1-10 mg/kg, time 28.0 day
structure (smiles),measurement,setting,value
COc1cc(C(=O)O)cc2sc(N3CCN(Cc4c(-c5c(Cl)cccc5Cl)noc4C4CC4)C[C@H]3C)nc12,EC50,[1],5 nM
same,EC50,[2],18 nM
same,solubility,[3],284 µM
same,half-life at 1 µM,[4],7.45 h
same,half-life at 1 µM,[5],1.93 h
same,half-life at 1 µM,[6],3.95 h
same,half-life at 1 µM,[7],2.57 h
same,AUC(0-t) at 5 min,[8],1010 ng·h/mL
same,half-life,[9],1.6 h
same,clearance,[10],16.5 mL/min/kg
same,Vd,[11],0.53 L/kg
same,Cmax,[12],3610 ng/mL
same,Tmax,[13],0.25 h
same,AUC(0-t) at 12 h,[14],3880 ng·h/mL
same,half-life,[15],1.52 h
same,bioavailability,[16],77.2%
same,AUC(0-t) at 5 min,[17],2610 ng·h/mL
same,t1/2,[18],1.44 h
same,Vdss,[19],29.3 L/kg
same,Cmax,[20],1950 ng/mL
same,Tmax,[21],0.5 h
same,AUC(0-t) at 12 h,[22],4120 ng·h/mL
same,half-life,[23],2.1 h
same,bioavailability,[24],52.1%
same,AUC(0-t) at 5 min,[25],4590 ng·h/mL
same,half-life,[26],4.07 h
same,clearance,[27],3.63 mL/min/kg
same,Vd,[28],0.823 L/kg
same,Cmax,[29],1710 ng/mL
same,Tmax,[30],1 h
same,AUC(0-t) at 12 h,[31],8270 ng·h/mL
same,half-life,[32],9.9 h
same,Drug metabolism,[33],Metabolite_Notdetected
same,fold change (FC),[34],12
same,fold change (FC),[35],4
same,fold change (FC),[36],5
same,fold change (FC),[37],7
same,fold change (FC),[38],~30
same,Activity,[39],Non-Toxic
same,Activity,[40],Active
same,Activity,[41],Active
same,Activity,[42],Active
same,Activity,[43],Active
same,Activity,[44],100%
same,Activity,[45],Active
same,Activity,[46],Active
COc1cc(C(=O)O)cc2sc(C3CCN(Cc4c(-c5c(Cl)cccc5Cl)noc4C(C)C)C3)nc12 (centres undefined),EC50,[1],266 nM
same,EC50,[2],> 5000 nM
CCC1CN(Cc2c(-c3c(Cl)cccc3Cl)noc2C(C)C)CCN1c1nc2c(OC)cc(C(=O)O)cc2s1 (centres undefined),EC50,[1],21 nM
same,EC50,[2],85 nM
COc1cc(C(=O)O)cc2sc(N3CCN(Cc4c(-c5c(Cl)cccc5Cl)noc4C(C)C)CC3(C)C)nc12,EC50,[1],37 nM
same,EC50,[2],127 nM
COc1cc(C(=O)O)cc2sc(N3CCC(Cc4c(-c5c(Cl)cccc5Cl)noc4C(C)C)C3)nc12 (centres undefined),EC50,[1],> 5000 nM
same,EC50,[2],> 5000 nM
